Conditions: Cohort 3 400 mg QD
Method: All responses were assessed by the investigators.
Reported Adverse Events. […] All-cause mortality data collected during the study were assessed for all enrolled participants. Disease progression related death was not reported as AE.
Number of Participants With Treatment-emergent Adverse Events (TEAEs), and Treatment-emergent Serious Adverse Events (TESAEs). […] TEAEs included both SAEs and non-SAEs. […] Analysis was performed on safety population which included all participants who received at least 1 dose of study medication.

CC(C)NC(=O)COc1cccc(-c2nc(Nc3ccc4[nH]ncc4c3)c3ccccc3n2)c1 [Belumosudil, 2-{3-[4-(1H-indazol-5-ylamino)-2-quinazolinyl]phenoxy}-N-(propan-2-yl) acetamide]
0: Respiratory tract infection fungal: # Events | Respiratory tract infection: # Events | Restless legs syndrome: # Events | Rosacea: # Events | SAE Acute kidney injury, # events | SAE Acute respiratory failure, # events | SAE Anaphylactic reaction, # events | SAE Bacteraemia, # events | SAE Cellulitis, # events | SAE Chronic graft versus host disease in skin, # events | SAE Citrobacter infection, # events | SAE Embolism, # events | SAE Influenza A virus test positive, # events | SAE Lacunar infarction, # events | SAE Lipomatosis, # events | SAE Metastases to meninges, # events | SAE Muscular weakness, # events | SAE Non-cardiac chest pain, # events | SAE Obliterative bronchiolitis, # events | SAE Proteinuria, # events | SAE Respirovirus test positive, # events | SAE Stenotrophomonas infection, # events | SAE Urinary tract infection, # events | Sinus pain: # Events | Skin lesion: # Events | Skin papilloma: # Events | Spinal compression fracture: # Events | Squamous cell carcinoma of skin: # Events | Superior vena cava syndrome: # Events | Tendonitis: # Events | Testicular pain: # Events | Testicular swelling: # Events | Thoracic spinal stenosis: # Events
3/21: SAE Dyspnoea, affected/at risk | SAE Pneumonia, affected/at risk
13/21: SAE total, affected/at risk
(0%): Renal failure: Affected/At Risk (%) | Respiratory tract infection fungal: Affected/At Risk (%) | Respiratory tract infection: Affected/At Risk (%) | Restless legs syndrome: Affected/At Risk (%) | Rosacea: Affected/At Risk (%) | Sinus pain: Affected/At Risk (%) | Skin lesion: Affected/At Risk (%) | Skin papilloma: Affected/At Risk (%) | Spinal compression fracture: Affected/At Risk (%) | Squamous cell carcinoma of skin: Affected/At Risk (%) | Superior vena cava syndrome: Affected/At Risk (%) | Tendonitis: Affected/At Risk (%) | Testicular pain: Affected/At Risk (%) | Testicular swelling: Affected/At Risk (%) | Thoracic spinal stenosis: Affected/At Risk (%)
1: SAE Abdominal wall haematoma, # events | SAE Acute lymphocytic leukaemia recurrent, # events | SAE Cardiac arrest, # events | SAE Febrile neutropenia, # events | SAE Graft versus host disease in lung, # events | SAE Leukaemia recurrent, # events | SAE Myelodysplastic syndrome, # events | SAE Pericardial effusion, # events | SAE Pleural effusion, # events | SAE Pneumonia viral, # events | SAE Pregnancy of partner, # events | SAE Small intestinal obstruction, # events | SAE Urinary retention, # events | SAE Varicella zoster virus infection, # events | Sinusitis: # Events | Stomatitis: # Events | Thrombocytopenia: # Events
1/21: SAE Abdominal wall haematoma, affected/at risk | SAE Acute lymphocytic leukaemia recurrent, affected/at risk | SAE Cardiac arrest, affected/at risk | SAE Febrile neutropenia, affected/at risk | SAE Graft versus host disease in lung, affected/at risk | SAE Leukaemia recurrent, affected/at risk | SAE Myelodysplastic syndrome, affected/at risk | SAE Pericardial effusion, affected/at risk | SAE Pleural effusion, affected/at risk | SAE Pneumonia viral, affected/at risk | SAE Pregnancy of partner, affected/at risk | SAE Small intestinal obstruction, affected/at risk | SAE Urinary retention, affected/at risk | SAE Varicella zoster virus infection, affected/at risk | Sinusitis: Affected/At Risk | Stomatitis: Affected/At Risk | Thrombocytopenia: Affected/At Risk
(9.52%): Respiratory syncytial virus infection: Affected/At Risk (%) | Skin abrasion: Affected/At Risk (%) | Tachycardia: Affected/At Risk (%)
2: SAE Hypoxia, # events | SAE Influenza like illness, # events | Skin abrasion: # Events | Tachycardia: # Events
2/21: Respiratory syncytial virus infection: Affected/At Risk | SAE Hypoxia, affected/at risk | SAE Influenza like illness, affected/at risk | Skin abrasion: Affected/At Risk | Tachycardia: Affected/At Risk
0/21: Renal failure: Affected/At Risk | Respiratory tract infection fungal: Affected/At Risk | Respiratory tract infection: Affected/At Risk | Restless legs syndrome: Affected/At Risk | Rosacea: Affected/At Risk | SAE Acute kidney injury, affected/at risk | SAE Acute respiratory failure, affected/at risk | SAE Anaphylactic reaction, affected/at risk | SAE Bacteraemia, affected/at risk | SAE Cellulitis, affected/at risk | SAE Chronic graft versus host disease in skin, affected/at risk | SAE Citrobacter infection, affected/at risk | SAE Embolism, affected/at risk | SAE Influenza A virus test positive, affected/at risk | SAE Lacunar infarction, affected/at risk | SAE Lipomatosis, affected/at risk | SAE Metastases to meninges, affected/at risk | SAE Muscular weakness, affected/at risk | SAE Non-cardiac chest pain, affected/at risk | SAE Obliterative bronchiolitis, affected/at risk | SAE Proteinuria, affected/at risk | SAE Respirovirus test positive, affected/at risk | SAE Stenotrophomonas infection, affected/at risk | SAE Urinary tract infection, affected/at risk | Sinus pain: Affected/At Risk | Skin lesion: Affected/At Risk | Skin papilloma: Affected/At Risk | Spinal compression fracture: Affected/At Risk | Squamous cell carcinoma of skin: Affected/At Risk | Superior vena cava syndrome: Affected/At Risk | Tendonitis: Affected/At Risk | Testicular pain: Affected/At Risk | Testicular swelling: Affected/At Risk | Thoracic spinal stenosis: Affected/At Risk
3: Respiratory syncytial virus infection: # Events | SAE Dyspnoea, # events | SAE Pneumonia, # events
(4.76%): Sinusitis: Affected/At Risk (%) | Stomatitis: Affected/At Risk (%) | Thrombocytopenia: Affected/At Risk (%)

— patent US20250255867A1 (Kadmon Corporation, LLC, priority 2022, published 2025)
